Like-named read-outs stand apart in the source and are kept apart here.
Columns and labels:
RET (G810S/M918T) = biological target: T1, RET (G810S/M918T) (Homo sapiens, UniProt P07949, G810S/M918T); test: Kinase panel inhibition, radiolabeled [γ-33P] ATP (Reaction Biology Corp); format: biochemical; conditions: ATP 1 µM; for remaining activity at 10 µM: compound at 10 uM; for remaining activity at 30 µM: compound at 30uM
T1 construct: purchased Reaction Biology Corp

RET-CCDC6 (PTC1) = biological target: T2, RET-CCDC6 (PTC1) (Homo sapiens, UniProt P07949); test: as above; format: biochemical; conditions: ATP 1 µM; for remaining activity at 10 µM: compound at 10 uM; for remaining activity at 30 µM: compound at 30uM
T2 construct: purchased Reaction Biology Corp

A-549 = test: Cell proliferation inhibition, Cell Counting Kit-8, non-small cell lung cancer cell line; format: cell-based; conditions: A-549 cell line; 72 hours incubation; test concentration not given
[1] = Data 1, read-out: % Enzyme Activity (relative to DMSO controls) RET (G810S/M918T) Data 1
[2] = Data 2, read-out: % Enzyme Activity (relative to DMSO controls) RET (G810S/M918T) Data 2
[3] = Data 1, read-out: % Enzyme Activity (relative to DMSO controls) RET-CCDC6 (PTC1) Data 1
[4] = Data 2, read-out: % Enzyme Activity (relative to DMSO controls) RET-CCDC6 (PTC1) Data 2

T2 sequence (P07949 whole entry, looked up): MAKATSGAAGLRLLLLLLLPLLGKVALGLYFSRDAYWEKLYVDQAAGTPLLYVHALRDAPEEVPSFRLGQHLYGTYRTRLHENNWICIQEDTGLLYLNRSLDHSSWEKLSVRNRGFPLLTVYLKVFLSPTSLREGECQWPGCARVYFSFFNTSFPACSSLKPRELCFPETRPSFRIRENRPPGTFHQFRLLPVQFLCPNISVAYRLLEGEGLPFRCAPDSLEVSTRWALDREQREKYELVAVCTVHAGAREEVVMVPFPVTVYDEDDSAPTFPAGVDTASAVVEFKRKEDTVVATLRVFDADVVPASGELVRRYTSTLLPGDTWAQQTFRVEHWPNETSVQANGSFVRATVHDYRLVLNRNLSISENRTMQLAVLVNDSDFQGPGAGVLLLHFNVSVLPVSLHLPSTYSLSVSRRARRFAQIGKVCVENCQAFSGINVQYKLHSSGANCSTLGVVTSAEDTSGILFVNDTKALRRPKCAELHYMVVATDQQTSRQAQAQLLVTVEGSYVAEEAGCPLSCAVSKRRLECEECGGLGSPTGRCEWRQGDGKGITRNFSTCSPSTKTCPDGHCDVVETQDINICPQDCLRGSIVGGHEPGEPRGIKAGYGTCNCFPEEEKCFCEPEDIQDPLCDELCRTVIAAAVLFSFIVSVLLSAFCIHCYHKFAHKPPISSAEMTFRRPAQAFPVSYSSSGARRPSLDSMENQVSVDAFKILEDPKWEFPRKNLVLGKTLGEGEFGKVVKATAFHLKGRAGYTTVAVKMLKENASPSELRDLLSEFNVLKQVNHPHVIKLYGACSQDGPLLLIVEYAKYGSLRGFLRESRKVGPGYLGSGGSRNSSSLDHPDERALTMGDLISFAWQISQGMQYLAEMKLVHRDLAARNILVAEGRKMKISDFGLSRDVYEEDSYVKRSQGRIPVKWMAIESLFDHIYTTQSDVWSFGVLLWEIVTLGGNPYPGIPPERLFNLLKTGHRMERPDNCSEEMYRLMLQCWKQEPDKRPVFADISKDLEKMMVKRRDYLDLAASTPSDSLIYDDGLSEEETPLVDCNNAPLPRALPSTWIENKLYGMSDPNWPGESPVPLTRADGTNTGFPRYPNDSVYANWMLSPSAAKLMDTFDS
T1 sequence (P07949 29-1114 G810S/M918T): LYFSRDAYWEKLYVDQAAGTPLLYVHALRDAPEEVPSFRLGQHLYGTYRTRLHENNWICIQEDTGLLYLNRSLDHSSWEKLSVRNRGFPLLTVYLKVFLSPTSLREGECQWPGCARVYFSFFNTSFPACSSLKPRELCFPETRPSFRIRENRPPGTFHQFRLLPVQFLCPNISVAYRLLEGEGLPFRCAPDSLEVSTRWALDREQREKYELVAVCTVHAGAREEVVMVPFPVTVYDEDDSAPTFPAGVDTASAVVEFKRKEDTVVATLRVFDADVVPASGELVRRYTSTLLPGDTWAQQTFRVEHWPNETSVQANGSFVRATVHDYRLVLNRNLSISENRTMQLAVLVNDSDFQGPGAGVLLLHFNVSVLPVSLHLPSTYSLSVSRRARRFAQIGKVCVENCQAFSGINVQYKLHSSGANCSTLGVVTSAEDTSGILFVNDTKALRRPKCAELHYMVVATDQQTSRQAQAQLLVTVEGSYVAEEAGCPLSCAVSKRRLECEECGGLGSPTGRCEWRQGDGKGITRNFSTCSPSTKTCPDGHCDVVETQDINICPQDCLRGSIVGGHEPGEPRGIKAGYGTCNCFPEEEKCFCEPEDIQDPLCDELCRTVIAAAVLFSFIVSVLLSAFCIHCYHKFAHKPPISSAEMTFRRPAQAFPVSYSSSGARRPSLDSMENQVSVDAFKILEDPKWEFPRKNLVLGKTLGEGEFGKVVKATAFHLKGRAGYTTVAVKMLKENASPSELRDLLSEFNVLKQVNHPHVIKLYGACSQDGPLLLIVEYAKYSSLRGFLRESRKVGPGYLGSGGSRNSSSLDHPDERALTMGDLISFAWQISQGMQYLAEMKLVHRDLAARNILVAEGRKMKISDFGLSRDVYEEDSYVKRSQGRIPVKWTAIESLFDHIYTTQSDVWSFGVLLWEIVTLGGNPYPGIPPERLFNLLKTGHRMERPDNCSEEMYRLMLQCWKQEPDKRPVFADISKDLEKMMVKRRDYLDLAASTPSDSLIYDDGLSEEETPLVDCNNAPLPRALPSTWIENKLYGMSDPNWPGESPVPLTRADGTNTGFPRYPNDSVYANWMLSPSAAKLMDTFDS

Structure (SMILES)	remaining activity at 10 µM (RET (G810S/M918T); [1]) [%]	remaining activity at 10 µM (RET (G810S/M918T); [2]) [%]	remaining activity at 10 µM (RET-CCDC6 (PTC1); [3]) [%]	remaining activity at 10 µM (RET-CCDC6 (PTC1); [4]) [%]	remaining activity at 30 µM (RET (G810S/M918T); [1]) [%]	remaining activity at 30 µM (RET (G810S/M918T); [2]) [%]	remaining activity at 30 µM (RET-CCDC6 (PTC1); [3]) [%]	remaining activity at 30 µM (RET-CCDC6 (PTC1); [4]) [%]	Cell Proliferation (% of control) (A-549) [%]
CCN1CCN(c2ccc(-c3cc(N)cc4nccnc34)cn2)CC1 [Example 21, 8-(6-(4-ethylpiperazin-1-yl)pyridin-3-yl)quinoxalin-6-amine]	66.7	63.3	26	28					64.90
CC(C)CNc1cc(-c2ccc(F)nc2)c2nccnc2c1 [Intermediate Compound 10, 8-(6-Fluoropyridin-3-yl)-N-isobutylquinoxalin-6-amine]					43.1	40.1			
CC(C)Nc1cc(Br)c2nccnc2c1 [Intermediate Compound 20, 8-Bromo-N-isopropylquin oxalin-6-amine]					69.1	73.1	7.86	7.51	
CCCNc1cc(-c2ccc(N3CC[C@H](NC(=O)c4ccccc4F)C3)nc2)c2nccnc2c1 [Example 13, (S)-2-fluoro-N-(1-(5-(7-(propylamino)quinoxalin-5-yl)pyridin-2-yl)pyrrolidin-3-yl)benzamide]	-0.06	-0.31	0.91	1.28					39.32
O=C(Nc1cc(-c2ccc(N3CC(Oc4cccc(F)c4)C3)nc2)c2nccnc2c1)c1ccccn1 [Example 9, N-(8-(6-(3-(3-fluorophenoxy)azetidin-1-yl)pyridin-3-yl)quinoxalin-6-yl)picolinamide]	49.5	50	2.81	3.74					18.67
CCCNc1cc(-c2ccc(F)nc2)c2nccnc2c1 [Intermediate Compound 7]					24	22.3			
CCNc1cc(-c2ccc(N3CCN(Cc4ccc(Br)cc4)CC3)nc2)c2nccnc2c1 [Example 26, 8-(6-(4-(4-bromobenzyl)piperazin-1-yl)pyridin-3-yl)-N-ethylquinoxalin-6-amine]	1.23	1.3	0.94	1.32					79.51
Nc1cc(-c2ccc(N3CCC(N4CCOCC4)CC3)nc2)c2nccnc2c1 [Example 25, 8-(6-(4-morpholinopiperidin-1-yl)pyridin-3-yl)quinoxalin-6-amine]	46.8	45.2	18.3	20.4					75.52
CC(C)CNc1cc(-c2ccc(N3CC(Oc4cccc(F)c4)C3)nc2)c2nccnc2c1 [Example 7, 8-(6-(3-(3-fluorophenoxy)azetidin-1-yl)pyridin-3-yl)-N-isobutylquinoxalin-6-amine]	4.28	4.26	0.85	1.07					53.57
Nc1cc(-c2ccc(N3CCN(c4ccccn4)CC3)nc2)c2nccnc2c1 [Example 23, 8-(6-(4-(pyridin-2-yl)piperazin-1-yl)pyridin-3-yl)quinoxalin-6-amine]	9.23	9.45	1.92	2.29					78.36
CNc1cc(-c2ccc(F)nc2)c2nccnc2c1 [Intermediate Compound 5, 8-(6-fluoropyridin-3-yl)-N-methylquinoxalin-6-amine]					13.3	14.4	5.67	3.67	
CCCNc1cc(-c2ccc(N3CC(Oc4cccc(F)c4)C3)nc2)c2nccnc2c1 [Example 4, 8-(6-(3-(3-fluorophenoxy)azetidin-1-yl)pyridin-3-yl)-N-propylquinoxalin-6-amine]	-0.23	0.04	1.11	1.31					43.59

More lines, main results first:

remaining activity at 10 µM (RET (G810S/M918T); [1]) [%]	remaining activity at 10 µM (RET (G810S/M918T); [2]) [%]	remaining activity at 10 µM (RET-CCDC6 (PTC1); [3]) [%]	remaining activity at 10 µM (RET-CCDC6 (PTC1); [4]) [%]	remaining activity at 30 µM (RET (G810S/M918T); [1]) [%]	remaining activity at 30 µM (RET (G810S/M918T); [2]) [%]	remaining activity at 30 µM (RET-CCDC6 (PTC1); [3]) [%]	remaining activity at 30 µM (RET-CCDC6 (PTC1); [4]) [%]	Structure (SMILES)	Cell Proliferation (% of control) (A-549) [%]
2.18	2.37	1.05	1.32					CCCCNc1cc(-c2ccc(N3CC(Oc4cccc(F)c4)C3)nc2)c2nccnc2c1 [Example 6, N-butyl-8-(6-(3-(3-fluorophenoxy)azetidin-1-yl)pyridin-3-yl)quinoxalin-6-amine]	68.59
2.24	2.38	1.51	1.27					Nc1cc(-c2ccc(N3CCN(Cc4ccc(Br)cc4)CC3)nc2)c2nccnc2c1 [Example 24, 8-(6-(4-(4-bromobenzyl)piperazin-1-yl)pyridin-3-yl)quinoxalin-6-amine]	15.35
15.7	15.1	2.9	3.03					CCS(=O)(=O)N1CCN(c2ccc(-c3cc(N)cc4nccnc34)cn2)CC1 [Example 22, 8-(6-(4-(ethylsulfonyl)piperazin-1-yl)pyridin-3-yl)quinoxalin-6-amine]	68.42
-0.06	-0.2	1.08	1.1					CCCCNc1cc(-c2ccc(N3CC[C@H](NC(=O)c4ccccc4F)C3)nc2)c2nccnc2c1 [Example 15, (S)-N-(1-(5-(7-(butylamino)quinoxalin-5-yl)pyridin-2-yl)pyrrolidin-3-yl)-2-fluorobenzamide]	51.55
				100	96.4			O=C(Nc1cc(Br)c2nccnc2c1)c1ccccn1 [Intermediate Compound 12, N-(8-Bromoquinoxalin-6-yl)picolinamide]	
				20.8	21.7			CCCCNc1cc(Br)c2nccnc2c1 [Intermediate Compound 21, 8-Bromo-N-butylquinoxalin-6-amine]	
0.97	0.98	1.19	1.2					Nc1cc(-c2cnc(N3CC[C@H](NC(=O)c4ccccc4F)C3)nc2)c2nccnc2c1 [Example 30, (S)-N-(1-(5-(7-aminoquinoxalin-5-yl)pyrimidin-2-yl)pyrrolidin-3-yl)-2-fluorobenzamide]	42.94
24.7	25.5	1.9	2.31					O=C(Nc1cc(-c2ccc(N3CC[C@H](NC(=O)c4ccccc4F)C3)nc2)c2nccnc2c1)c1ccccn1 [Example 18, (S)-N-(8-(6-(3-(2-fluorobenzamido)pyrrolidin-1-yl)pyridin-3-yl)quinoxalin-6-yl)picolinamide]	35.32
				66.5	68.4	7.38	7.71	CC(C)Nc1cc(-c2ccc(F)nc2)c2nccnc2c1 [Intermediate Compound 8, 8-(6-fluoropyridin-3-yl)-N-isopropylquin oxalin-6-amine]	
48.1	45	12.9	15.3					CN1CCN(c2ccc(-c3cc(N)cc4nccnc34)cn2)CC1 [Example 20, 8-(6-(4-methylpiperazin-1-yl)pyridin-3-yl)quinoxalin-6-amine]	81.61
				24.8	25.3			CCCCNc1cc(-c2ccc(F)nc2)c2nccnc2c1 [Intermediate Compound 9, N-butyl-8-(6-fluoropyridin-3-yl)quinoxalin-6-amine]	
				92.5	92.5			O=C(Nc1cc(-c2ccc(F)nc2)c2nccnc2c1)c1ccccn1 [Intermediate Compound 14, N-(8-(6-Fluoropyridin-3-yl)quinoxalin-6-yl)picolinamide]	
				40.8	39.1	13.2	13.3	Nc1cc(-c2cnc(Cl)nc2)c2nccnc2c1 [Intermediate Compound 16, 8-(2-chloropyrimidin-5-yl)quinoxalin-6-amine]	
				53.5	54.1	20.9	19.4	Nc1cc(-c2ccc(F)nc2)c2nccnc2c1 [Intermediate Compound 4, 8-(6-fluoropyridin-3-yl)quinoxalin-6-amine]	
				27.6	28.3			CCCNc1cc(Br)c2nccnc2c1 [Intermediate Compound 19, 8-Bromo-N-propylquinoxalin-6-amine]	
				49.4	48.9			CC(C)CNc1cc(Br)c2nccnc2c1 [Intermediate Compound 22, 8-Bromo-N-isobutylquino xalin-6-amine]	

Reference: patent publication EP4796538A1, “NOVEL QUINOXALINE COMPOUNDS, MANUFACTURING METHOD THEREOF, AND USES THEREOF” (Gachon University of Industry-Academic Cooperation …, priority 2023, dated 2025)
